Measured values: patent US10294275B2, “Site-selective functionalization of glycopeptide antibiotics” (Yale University, priority 2012, dated 2019)
Converted amounts (≈) assume the structure as drawn.

Columns and labels:
[1] = test system: Staphylococcus aureus; conditions: cited from earlier work
[2] = test system: vancomycin-susceptible enterococci, ATCC 29212; test: Minimum inhibitory concentration against VSE; type: cell-based; conditions: read-out: MIC, VSE
Source text: (§1) The chemistry described above enabled direct synthesis of eleven previously unknown analogs of 3. The minimum inhibitory concentrations (MICs) for the new analogs as antibacterial agents as determined.

[3] = test system: vancomycin-resistant enterococci (VanA), MMX 486; test: Minimum inhibitory concentration against VRE (VanA); type: cell-based; conditions: Enterococcus, VRE, read-out: MIC, VRE (VanA)
Source text: as §1

[4] = test system: methicillin-susceptible S. aureus, ATCC 29213; test: Minimum inhibitory concentration against MSSA; type: cell-based; conditions: Staphylococcus aureus, read-out: MIC, MSSA
Source text: as §1

[5] = test system: vancomycin-resistant enterococci (VanB), ATCC 51299; test: Minimum inhibitory concentration against VRE (VanB); type: cell-based; conditions: Enterococcus, read-out: MIC, VRE (VanB)
Source text: as §1

[6] = test system: methicillin-resistant S. aureus, ATCC 43300; test: Minimum inhibitory concentration against MRSA; type: cell-based; conditions: Staphylococcus aureus, read-out: MIC, MRSA
Source text: as §1

For `CN[C@H](CC(C)C)C(=O)N[C@H]1C(=O)N[C@@H](CC(N)=O)C(=O)N[C@H]2C(=O)N[C@H]3C(=O)N[C@H](C(=O)N[C@H](C(=O)O)c4cc(O)cc(O)c4-c4cc3ccc4O)[C@H](O)c3ccc(c(Cl)c3)Oc3cc2cc(c3O[C@@H]2O[C@H](CO)[C@@H](O)[C@H](O)[C@H]2O[C@H]2C[C@](C)(N)[C@H](O)[C@H](C)O2)Oc2ccc(cc2Cl)[C@H]1O` [Vancomycin, vancomycin, reference compound], the “in vitro MIC against Staphylococcus aureus” value [1] is given as 0.25 to 10 µg/mL, the MIC [2] is given as 2 µg/mL (≈ 1.38 µM) and the MIC [3] is given as over 64 µg/mL. It also gave an MIC [4] of 0.5 µg/mL (≈ 0.345 µM), an MIC [5] of 16 µg/mL (≈ 11 µM) and an MIC [6] of 1 µg/mL (≈ 0.69 µM).
